The source of these data is paper PMC5764437, “Discovery of novel, orally bioavailable, antileishmanial compounds using phenotypic screening” (PLoS Neglected Tropical Diseases, 2017).

In general, half-life refers to how long it takes for the measured level to halve. Read a low half-life as fast loss. One may read the Papp as the rate of passage across a membrane or cell layer, normalised by area and donor concentration. Higher therefore signals fast passage. One may read the fraction unbound as free concentration divided by total concentration. Low readings indicate extensive binding, high ones weak binding. As a reminder, the EC50 is the concentration that produces a half-maximal response.

“Also recorded” adds a separate entry of the source.

The nature of data set [1]: Stability in simulated gastric fluid. To be noted: simulated gastric fluid with pepsin, pH 1. The procedure:
Compound stocks were 10 mM in DMSO. The internal standard was 5 µM warfarin in methanol. […] 1 ml SGF was added to a 1.1 ml 96-well storage plate and mixed well with 10 µl compound stock. The plate was then incubated at 37 °C and shaken at 60 rpm. […] At each time point, 100 µl was removed to a 1 ml storage plate and 300 µl internal standard was added to quench the reaction. […] The compound was detected by SIR and quantification was based on peak area of test compound and the internal standard.

A short description of data set [2]: Parallel Artificial Membrane Permeability Assay (PAMPA). To be noted: pH 7.4. The procedure: Parallel Artificial Membrane Permeability Assay (PAMPA) was conducted by Biomek FX lab automation workstation (Beckman Coulter, Inc.) and PAMPA evolution 96 command software (pION Inc.). A 3 µL aliquot of […] test compound stock in DMSO was mixed with 597 µL of isotonic citrate phosphate buffered saline to make diluted test compound. Diluted test compound (150 µL) was transferred to a UV plate (pION Inc.) and the UV spectrum was read as the reference plate. The membrane on a pre-loaded PAMPA sandwich (pION Inc.) was painted with 4 µL GIT lipid (pION Inc.). The acceptor chamber was then filled with 200 µL acceptor solution buffer, (pION Inc.), and the donor chamber was filled with 180 µL diluted test compound. The PAMPA sandwich was assembled, placed on the Gut-Box and stirred for 30 min. The Aqueous Boundary Layer was set to 40 µm for stirring. The UV spectrum (250-500 nm) of the donor and the acceptor solutions were recorded. The permeability coefficient was calculated using PAMPA Evolution 96 Command software (pION Inc.) based on the AUC of the reference plate, the donor plate and the acceptor plate. All compounds were tested in triplicate.

The nature of data set [3]: Mouse plasma protein binding assay (Rapid Equilibrium Dialysis). To be noted: mouse, mouse plasma, pH 7.4; for fraction unbound at 4 h, 0.8 μM: Conc. 0.8 μM; for fraction unbound at 4 h, 4 μM: Conc. 4 μM; for fraction unbound at 4 h, 20 μM: Conc. 20 μM. It is filed as in vitro ADME. The procedure: (§1) A Rapid Equilibrium Dialysis (RED) Plate (Thermo Scientific, catalog #, PI-90007) was used to determine the percentage of compound binding to mouse plasma proteins (Thermo Scientific, catalog #, 50642085). The positive control for this experiment was propranolol HCl (295.807 g/mol) and the internal standard was warfarin in methanol (2 μM). 10 mM stocks of compound in DMSO were diluted with DMSO and acetonitrile to three different intermediate concentrations: high (2 mM), medium (0.4 mM) and low (0.08 mM) concentration in DMSO:acetonitrile (1:4, v:v). 10 mM stock of propranolol in DMSO were diluted to 0.4 mM concentration in DMSO:acetonitrile (1:4 v:v).
(§2) In 10 Eppendorf tubes, the control (10 μL) or each of three compound dilutions (10 μL) were each added to separate aliquots of 990 μL mouse plasma. Potassium phosphate buffer (500 μL, 0.1 M, pH 7.4, 37 °C) was placed in every white well of the RED plate and each plasma/compound mixture was added to each of 3 RED wells (300 μL). The RED plate holds triplicate samples of one control (final concentration […]) and one compound (final concentrations: 20 μM, 4 μM, […]). The RED Plate was sealed and incubated at 37 °C shaking at 250 rpm for 4 hours. After incubation, aliquots (50 μL) from each well in the RED plate were transferred to an assay plate (pION Inc., MA, #110323). In order to create a uniform matrix in every well of the assay plate, plasma (50 μL) was added to each of the wells that already contained buffer and potassium phosphate buffer (50 μL) was added to each of the wells that already contained plasma/compound. Pre-cooled internal standard (300 μL) was added to the assay plate to quench the reaction. The quenched plate was then centrifuged (5810R, Eppendorf, Westbury, NY) at 3000 rpm for 20 minutes.
(§3) The percentage of free compound [1] and bound compound [2] was calculated usng the AUC ratio of compound to warfarin from the SIR spectra. For reporting data, % Free = Concentration buffer/Concentration plasma *100 %, and % Bound = 100% - % Free.
Background: In equilibrium dialysis free small molecules cross a membrane that holds back macromolecules.

The test system of another data set is mouse plasma proteins. Described as above. The format is in vitro ADME. To be noted: across tested concentrations. The procedure: as §1, §2, §3
The test system of the next data set is J774A.1 macrophages. The data set is described as follows: Cytotoxicity to J774A.1 macrophages (dose-response). Particulars: for EC50: Mus musculus, J774.A1, host macrophage, tested up to 10 μM, mean ± standard deviation, n = 2, read-out: J774A.1 EC50. The format is cell-based. As to the method: Cytotoxicity of compounds to J774.A1 macrophages was determined by dose-response curves as described previously. In the absence of growth inhibitors or DMSO, the macrophages increased in number ~6-fold over 96 h in Minimum Essential Medium, employed for both macrophage infections and the toxicity assays.

Data set [4] can be described thus: Dose-ranging tolerability / 10-day toxicity study in mice. The format is in vivo, mouse. As to the method:
Drug doses were chosen based on pilot toxicology and pharmacokinetic studies. Female BALB/C mice (compound 4) or C57BL6 (compound 5) of 17–21 grams were purchased from Charles River Laboratories (Wilmington, MA). Food and water were provided ad libitum. Two mice were used as control and another 5 mice were dosed daily via oral gavage (25 mg/kg with compound 4 and 50 mg/kg with compound 5). Every day blood was collected by retro-orbital bleed from one animal from the treatment group for pharmacokinetics. […] Each mouse received two blood collections and glucose measurements over the 10-day course of treatment.

Data set [5] deals with Trypanosoma cruzi CL Brener epimastigotes. The data set is described as follows: Growth inhibition of Trypanosoma cruzi epimastigotes (SYBR Green). The format is cell-based. Particulars: 72 h, 10 μM to 1 nM. As to the method:
Trypanosoma cruzi CL Brener epimastigotes were obtained from Dr. Fred Buckner of the Department of Medicine at the University of Washington. T. cruzi epimastigotes were grown in liver infusion tryptose medium and seeded in a 96-well plate at 10^5 epimastigotes per well in 100 μl medium. For each well, 1 μl of compound in DMSO at 100X the desired final concentration was added. Epimastigotes were exposed to a range of compound concentrations from 10 μM to 1 nM to determine EC50. Plates were incubated at 26°C for 72 h, then 10 μl 50X SYBR Green in 1% Triton X-100 was added to each well followed by incubation with shaking at room temperature for 30 minutes. Fluorescence was read (excitation 485nm, emission 535nm) with the Victor^2 multiplate reader (PerkinElmer). All data processing and visualization were performed using GraphPad Prism 6 software.

Setting [6] is: 50 mg/kg, 10-day toxicity study.

On to `COc1ccc(-c2c(C(F)(F)F)oc3c(CN4CCN(C)CC4)c(O)ccc3c2=O)cc1OC` [Compound 4], for which the half-life at 99 µM in data set [1] is more than 48 h. The molecule also returned a Papp at 30 min, 0.05 µM in data set [2] of 3750 nm/s. In addition, in data set [3], the fraction unbound at 4 h, 0.8 μM was 0.54; the fraction unbound at 4 h, 4 μM was 0.599; the fraction unbound at 4 h, 20 μM is 0.534. Besides, in the data set with mouse plasma proteins, the “Binding to mouse plasma proteins” value is less than 50%. In the data set with J774A.1 macrophages, the EC50 was more than 10 µM. Moreover, the “Reduction in viability / inhibition of host macrophage J774A.1 in dose-response studies” value in the data set with J774A.1 macrophages (up to 10 μM) is recorded as “no reduction in viability; also recorded: no inhibition of J774A.1 macrophages up to 10 μM concentration”. Further, the “Tolerability of daily oral administration” value in data set [4] (daily oral, 25 mg/kg) was “well-tolerated in all study animals; also recorded: No weight loss or other toxicity was observed”. Also, the Seizures entry in data set [4] (oral gavage, 25 mg/kg) is “no seizures were seen”. Besides, in data set [4] (oral gavage, 25 mg/kg, at Cmax and Cmin), the Glucose level result is listed as “remained within normal limits”. The “Seizures / seizure-like behavior” value in data set [4] (oral gavage, 50 mg/kg) is reported as “half of the animals exhibited seizure-like behavior”. The “Glucose level in plasma” value in data set [4] (oral gavage, 50 mg/kg, untreated mice 185–251 mg/dl) was in the range of 23 to 40 mg/dL. Moreover, in data set [5], the “T. cruzi epimastigotes EC50” value was “no inhibition”.
In the case of `Cc1ccc(-c2nc3ccccc3s2)cc1NC(=O)c1cc([N+](=O)[O-])c(N2CCN(C)CC2)cc1Cl` [Compound 5], in data set [1], the half-life at 99 µM is more than 24 h. The Papp at 30 min, 0.05 µM in data set [2] worked out at 2370 nm/s. In data set [3], this molecule had a fraction unbound at 4 h, 0.8 μM of 0.65; a fraction unbound at 4 h, 4 μM of 0.591; a free fraction (fraction unbound) at 4 h, 20 μM of 0.586. In the data set with mouse plasma proteins, the “Binding to mouse plasma proteins” value was less than 50%. Besides, in the data set with J774A.1 macrophages, the EC50 came to 1.1 ± 0.8 µM. Also, in data set [4] (setting [6]), the Food intake result was “reduced food intake” and the Weight loss entry was “more than 10%”. Besides, the EC50 in data set [5] (Trypanosoma cruzi, read-out: T. cruzi epimastigotes EC50) is 0.086 ± 0.03 µM.
